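Briefly, cells in 96-well plates were exposed to five compound concentrations for 48 h, and endpoints were estimated by linear interpolation. The concentration for 50% growth inhibition is given as GI50.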 Calls of active or inactive are those of the source. Cut-off read from the data, not from the text of the source: active = GI50 up to about 1.1 µM and inactive = higher. Where only a bound is given, the exact number is not on record here.

Some test systems named below: EKVX; HCT-15; HOP-92; OVCAR-8; HOP-62; MOLT-4; HCT-116; SK-MEL-28; OVCAR-3; RPMI-8226; NCI-H226; RXF 393; UO-31; K562; UACC-257; TK-10.
Common to all, as to assay: growth of human tumour cells (NCI), 48 h

For the compound `NNC(=O)CC(=O)Nc1ccccc1F`, the GI50 with EKVX was > 100 µM (inactive); with HCT-15, > 100 µM; with HOP-92, > 100 µM (inactive); in the assay on OVCAR-8 it was > 100 µM (inactive); in the assay on HOP-62, > 100 µM (inactive); in the assay on MOLT-4 it was > 100 µM (inactive). Also, the GI50 with HCT-116, in the assay on SK-MEL-28, in the assay with OVCAR-3, in the assay with RPMI-8226, in the assay on NCI-H226 and with RXF 393 was > 100 µM (inactive) throughout. In addition, the GI50 in the assay with UO-31, in the assay on K562 and in the assay on UACC-257 was > 100 µM (inactive) throughout.
As to `Cc1ccc(C(=O)O/N=C2/CCCC/C2=C\c2ccccc2)cc1`, the GI50 in the assay on EKVX was > 100 µM (inactive); with HCT-15, 32.4 µM; with HOP-92 it was 54.5 µM (inactive); in the assay with OVCAR-8 it was 37.2 µM (inactive); with HOP-62, > 100 µM (inactive); in the assay with HCT-116, 16.4 µM (inactive). Besides, the GI50 in the assay with SK-MEL-28 is 12.7 µM (inactive); in the assay on OVCAR-3, 38.1 µM (inactive); in the assay with RPMI-8226, 77.8 µM (inactive); in the assay on NCI-H226 it was > 100 µM (inactive); with RXF 393, 38.6 µM (inactive); in the assay on TK-10, > 100 µM (inactive). The values for the GI50 in the assay with UO-31, with K562 and in the assay with UACC-257 were 17.7 µM (inactive), 19.2 µM (inactive) and > 100 µM (inactive), respectively.
Take `CC(C)N1CC2CC(CN(C(=O)c3ccc(Cl)cc3)C2)C1`: the GI50 in the assay with EKVX is > 100 µM (inactive); in the assay on HCT-15, > 100 µM; in the assay with HOP-92, > 100 µM (inactive); in the assay with OVCAR-8, > 100 µM (inactive); with HOP-62, > 100 µM (inactive); in the assay with MOLT-4, > 100 µM (inactive). Also, the GI50 in the assay with SK-MEL-28, in the assay with OVCAR-3, with RPMI-8226, with NCI-H226, in the assay with RXF 393 and with TK-10 was > 100 µM (inactive) throughout. The GI50 in the assay on UO-31, in the assay on K562 and with UACC-257 was > 100 µM (inactive) throughout.
As for `O=C(CC(=O)n1nc(-c2ccccc2)c(/N=N/c2ccc([N+](=O)[O-])cc2)c1-c1ccccc1)Nc1ccc(Cl)cc1`, the GI50 with EKVX is 26.7 µM (inactive); with HOP-92, 16.8 µM (inactive); with OVCAR-8 it was 35.8 µM (inactive); in the assay on HOP-62, 14.5 µM (inactive); with MOLT-4 it was 24.1 µM (inactive); in the assay on HCT-116 it was 12.9 µM (inactive). Moreover, the GI50 in the assay on SK-MEL-28 is 17.9 µM (inactive); in the assay on OVCAR-3, 16 µM (inactive); in the assay on RPMI-8226 it was 30.2 µM (inactive); in the assay with NCI-H226, 22.4 µM (inactive); with RXF 393, 19.5 µM (inactive); in the assay on TK-10, 22.6 µM (inactive). Besides, the GI50 with UO-31 is 11.9 µM (inactive); with K562, 4.19 µM (inactive); with UACC-257 it was 34.8 µM (inactive).
With `CN(C)C=C1C(=O)N(C)C(=O)N(C)C1=O`, the GI50 in the assay with EKVX is > 100 µM (inactive); with HCT-15, > 100 µM; with HOP-92, > 100 µM (inactive); in the assay on OVCAR-8 it was > 100 µM (inactive); with MOLT-4 it was > 100 µM (inactive); in the assay on HCT-116, > 100 µM (inactive). Besides, the GI50 with SK-MEL-28, in the assay on OVCAR-3, in the assay with RPMI-8226, with NCI-H226, in the assay on RXF 393 and in the assay on TK-10 was > 100 µM (inactive) each time. Moreover, the GI50 in the assay on UO-31, with K562 and in the assay on UACC-257 was > 100 µM (inactive) each time.

The values are drawn from ChEMBL document CHEMBL1201862, “PubChem BioAssay data set” (2004).
